Experimental data: US20240368151A1, “NOVEL ERGOLINES AND METHODS OF TREATING MOOD DISORDERS” (priority 2021, published 2024)
Read-outs that look alike come from different tables or passages of the source.

How the values were obtained:
[1] = Metabolic stability in rat liver microsomes (RLM); assay type: in vitro ADME; settings: for half-life at 1 μM: both sexes, rat, pooled rat liver microsomes, pH 7.4, NADPH
[2] = Metabolic stability in mouse liver microsomes (MLM); assay type: in vitro ADME; settings: NADPH; for half-life at 1 μM: mouse, pooled mouse liver microsomes, pH 7.4, MLM (CD-1)
Text: MLM Stability Pooled MLM from CD-1 mice (BIOIVT M00501) were used.

5-HT2B receptor = 5-HT2B receptor (Homo sapiens (Human), UniProt P41595); assay: FLIPR Ca^2+ flux agonist assay at 5-HT2B; assay type: cell-based; settings: HEK293
Protocol: (§1) Functional Assays at 5-HT2A, 5-HT2B, and 5-HT1A. Agonist activity at 5-HT2A, 5-HT2B, and 5-HT1A receptors was determined using a FLIPR Ca^2+ flux assay at WuXi AppTec (Hong Kong) Limited according to their standard protocols. Briefly, stably transfected cells expressing the receptor of interest (HEK293 for 5-HT2A and 5-HT2B; CHO cells for 5-HT1A) were grown and plated in a 384 well plate and incubated at 37° C. and 5% CO2 overnight. A solution of 250 mM probenecid in 1 mL FLIPR assay buffer was prepared fresh. This was combined with a fluorescent dye (Fluo-4 Direct™) to make a final assay concentration of 2.5 mM. […] The fluorescent dye was then added to the assay plate along with assay buffer to a final volume of 40 μL. The cell plate was incubated for 50 min at 37° C. and 5% CO2 and placed into the FLIPR Tetra along with the compound plate. 10p L of references and compounds were then transferred from the compound plate into the cell plate and the fluorescent signal was read.

5-HT2A receptor [3] = biological target: T1, 5-HT2A receptor (Homo sapiens (Human), UniProt P28223); assay type: cell-based; settings: Ca^2+ flux, HEK293
Protocol: as §1

5-HT2A receptor [4] = biological target: T1, 5-HT2A receptor; assay type: cell-based; settings: beta-arrestin recruitment
Protocol: The degree of arrestin bias varied substantially across the other compounds tested as well.
Arrestin Functional Assay at 5-HT2A. Recruitment of beta-arrestin was determined using a PathHunter assay at Eurofins DiscoverX (Fremont, CA) according to their standard protocols. PathHunter GPCR beta-arrestin assays take advantage of DiscoverX's proprietary Enzyme Fragment Complementation technology. The GPCR is fused in frame with a small enzyme donor fragment ProLink™ (PK) and co-expressed in cells stably expressing a fusion protein of beta-arrestin and the larger, N-terminal deletion mutant of beta-galactosidase. Activation of the GPCR (5-HT2A receptor in this case) stimulates binding of beta-arrestin to the PK-tagged GPCR and forces complementation of the two enzyme fragments, resulting in the formation of an active beta-galactosidase enzyme. This interaction leads to an increase in enzyme activity that can be measured using chemiluminescent PathHunter Detection Reagents. Briefly, PathHunter cells expressing 5-HT2A receptors were seeded in a volume of 20 μL into 384-well plates and incubated at 37° C. for the appropriate time prior to testing. […] Plates were then imaged on a microplate reader and the agonist activity was calculated using the following formula: % Activity=100%×(mean RLU of test sample−mean RLU of vehicle control)/(mean MAX control ligand−mean RLU of vehicle control), where RLU=relative light units.

human 5-HT2C receptor = human 5-HT2C receptor (Homo sapiens (Human), UniProt P28335); assay type: cell-based
[5] = Metabolic stability in human liver microsomes (HLM); assay type: in vitro ADME; settings: for half-life at 1 μM: both sexes, human, pooled human liver microsomes, pH 7.4, NADPH
Text: HLM Stability. Pooled HLM from adult male and female donors (Corning 452117) were used.

5-HT1A receptor = 5-HT1A receptor (Homo sapiens (Human), UniProt P08908); assay: FLIPR Ca^2+ flux agonist assay at 5-HT1A; assay type: cell-based; settings: CHO cells
Protocol: as §1

C57BL/6 mice = assay: Mouse head twitch response (HTR) assay; assay type: in vivo; settings: mouse HTR, SC; for # HTR at Most Efficacious Dose / Emax (95% CI): 20 min observation; for Emax (95% CI): curve fit
Protocol: Agonists of the 5-HT2A receptor are well known to induce this effect in rodents and the potency of this HTR is correlated with hallucinogenic potency in humans.
Animals. Adult male C57BL/6 mice, aged 6-8 weeks (body weight 20-25 g) were used in this experiment. Animals were housed under controlled temperatures and 12-hour light/dark cycles (lights on between 07:00-19:00 h), with ad libitum food and water. This study was carried out in strict accordance with the requirements of the Committee for the Purpose of Control and Supervision of Experiments on Animals (CPCSEA), India. All efforts were made to minimize suffering.
Drugs and Drug Administration. Compound 1 was synthesized as described above. It was administered subcutaneously (SC) dissolved in saline vehicle at a volume of 10 mL/kg. Five doses were tested, with n=6 animals/group. Doses were calculated on the basis of the freebase.
Procedure. Mice were administered one dose of the drug and immediately placed into a small open field for behavioral observation. Animals were observed continuously for 20 mins and the number of head twitches (HTs) were counted by an observer blind to the treatment condition.
Statistical Analysis. The data points shown are the mean±standard error of the mean (SEM). Analysis was performed using GraphPad Prism 6. Curves were fit using a non-linear gaussian distribution to calculate ED50 and Emax values.
Additional disclosed compounds were tested in the mouse head twitch response (HTR) assay according to the procedure described in Example 34. […] Lastly, compounds with much larger benzyl and phenethyl substituents on the amine nitrogen (e.g., 10 and 11) were low efficacy in this assay, consistent with their lower maximal efficacy in the arrestin functional assay (see Example 32).

Sequence of human 5-HT2C receptor (P28335 33-458 limits assumed): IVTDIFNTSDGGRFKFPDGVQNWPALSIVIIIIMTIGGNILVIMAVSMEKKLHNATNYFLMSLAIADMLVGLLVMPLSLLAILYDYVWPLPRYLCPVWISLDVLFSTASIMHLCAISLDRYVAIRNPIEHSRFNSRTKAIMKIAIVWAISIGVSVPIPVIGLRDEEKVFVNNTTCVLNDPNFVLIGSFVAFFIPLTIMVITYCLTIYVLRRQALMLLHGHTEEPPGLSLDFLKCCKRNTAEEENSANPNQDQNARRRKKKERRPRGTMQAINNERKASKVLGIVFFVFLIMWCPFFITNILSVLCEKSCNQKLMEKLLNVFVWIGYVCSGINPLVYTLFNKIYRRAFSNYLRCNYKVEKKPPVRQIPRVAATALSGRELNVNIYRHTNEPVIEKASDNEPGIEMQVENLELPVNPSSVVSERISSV
Sequence of 5-HT2B receptor (P41595 whole entry, looked up): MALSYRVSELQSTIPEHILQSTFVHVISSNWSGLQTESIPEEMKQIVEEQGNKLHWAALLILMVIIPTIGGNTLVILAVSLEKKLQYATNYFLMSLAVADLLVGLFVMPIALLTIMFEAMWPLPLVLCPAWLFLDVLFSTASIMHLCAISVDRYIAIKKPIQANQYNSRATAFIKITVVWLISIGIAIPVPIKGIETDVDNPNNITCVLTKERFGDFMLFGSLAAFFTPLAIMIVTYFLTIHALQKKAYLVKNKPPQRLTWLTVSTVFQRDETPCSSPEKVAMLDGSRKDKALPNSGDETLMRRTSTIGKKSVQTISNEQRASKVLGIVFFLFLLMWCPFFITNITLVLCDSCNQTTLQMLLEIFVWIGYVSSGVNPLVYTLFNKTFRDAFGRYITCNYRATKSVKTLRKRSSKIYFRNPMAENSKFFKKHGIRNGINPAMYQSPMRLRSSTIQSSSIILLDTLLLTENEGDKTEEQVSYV

| Compound | half-life at 1 μM [1] [min] | half-life at 1 μM [2] [min] | 5-HT2B % Act @ Max Dose (5-HT2B receptor) [%] | 5-HT2A % Act @ Max Dose (5-HT2A receptor [3]) [%] | 5-HT2A Arrestin % Act @ Max Dose (5-HT2A receptor [4]) [%] | 5-HT2C % Act @ Max Dose (human 5-HT2C receptor; Ca^2+ flux) [%] | half-life at 1 μM [5] [min] | 5-HT1A % Act @ Max Dose (5-HT1A receptor) [%] | Clint ([1]; 1 μM, NADPH) [µL/min/mg] | t1/2 ([1]; 1 μM, NADPH) [min] | Most Efficacious Dose (C57BL/6 mice) | # HTR at Most Efficacious Dose (C57BL/6 mice) | Emax (95% CI) (C57BL/6 mice) | Clint ([2]; MLM (CD-1), 1 μM) [µL/min/mg] | t1/2 ([2]; MLM (CD-1), 1 μM) [min] | agonist type in the 5-HT2A arrestin recruitment assay, in words (5-HT2A receptor [4]) | 5-HT2C % Act @ Max Dose (human 5-HT2C receptor) [%] | Clint ([5]; 1 μM, NADPH) [µL/min/mg] | t1/2 ([5]; 1 μM, NADPH) [min] |
| --- | --- | --- | --- | --- | --- | --- | --- | --- | --- | --- | --- | --- | --- | --- | --- | --- | --- | --- | --- |
| CCCN1C[C@@H](C(=O)N[C@H](C)CC)C=C2c3cccc4[nH]cc(c34)C[C@H]21 [Compound 3a, (6aR,9S)-N-((R)-sec-butyl)-7-propyl-4,6,6a,7,8,9-hexahydroindolo[4,3-fg]quinoline-9-carboxamide] | 1.4 | 0.6 | 52.81 | 92.04 | 112.91 | 108.705 | 2.2 | 108.14 | – | – | – | – | – | – | – | – | – | – | – |
| CC[C@@H](C)NC(=O)[C@@H]1C=C2c3cccc4[nH]cc(c34)C[C@H]2N(CC)C1 [Compound 5] | – | – | 84.77 | 102.81 | 105.72 | – | – | 107.87 | 72.0 | 19.3 | (0.32 mg/kg) | 17.667 | 15.22 | 170.4 | 8.1 | full agonists | 114.5 | 62.3 | 22.2 |
| C=CCN1C[C@@H](C(=O)N[C@H](C)CC)C=C2c3cccc4[nH]cc(c34)C[C@H]21 [Compound 8a, (6aR,9S)-7-allyl-N-((R)-sec-butyl)-4,6,6a,7,8,9-hexahydroindolo[4,3-fg]quinoline-9-carboxamide] | 1.7 | 0.8 | 35.71 | 87.45 | 81.117 | 13.314 | 3.4 | 90.34 | – | – | – | – | – | – | – | – | – | – | – |
| CCC(CC)NC(=O)[C@H]1C=C2c3cccc4[nH]cc(c34)C[C@H]2N(C)C1 [Int14a, (6aR,9S)-7-methyl-N-(pentan-3-yl)-4,6,6a,7,8,9-hexahydroindolo[4,3-fg]quinoline-9-carboxamide] | 1.8 | 1.7 | 1.86 | 32.98 | 44.321 | 119.28 | 3.35 | 70.27 | – | – | – | – | – | – | – | – | – | – | – |
| CC[C@@H](C)NC(=O)[C@H]1C=C2c3cccc4[nH]cc(c34)C[C@H]2N(C)C1 [Int8a, (6aR,9S)-N-((R)-sec-butyl)-7-methyl-4,6,6a,7,8,9-hexahydroindolo[4,3-fg]quinoline-9-carboxamide] | 3.5 | 1.6 | 6.87 | 72.6 | 35.52 | 93.73 | 11.1 | 103.65 | – | – | – | – | – | – | – | – | – | – | – |
| C[C@H]1C[C@H](C)N1C(=O)[C@@H]1C=C2c3cccc4[nH]cc(c34)C[C@H]2N(C)C1 [Int11, ((2S,4S)-2,4-dimethylazetidin-1-yl)((6aR, 9R)-7-methyl-4,6,6a,7,8,9-hexahydroindolo[4,3-fg]quinolin-9-yl)methanone] | 54.9 | 13.9 | 38.15 | 110.03 | 49.269 | – | 25.7 | 89.9 | – | – | (0.1 mg/kg) | 10.667 | 10.93 | – | – | partial agonists | – | – | – |
